The test system of assay [1] is non-small cell lung cancer cell line (A549). The experiment in a line: In vivo inhibition of tumor growth, A549 xenograft. Also noted: species or system human tumor cells in nude mice. As to conditions: for Starting volume: at start. The procedure:
(§1) Cells from a non-small cell lung cancer cell line (A549) were grown in nine T175 flasks in F12K media and 10% fetal calf serum until the cells were confluent. 4.5×10^6 cells (in 100 microliters) were injected into the right rear flank of 4-5 week old male homozygous (nu/nu) nude mice (Harlan, Madison Wis.). Tumors were allowed to grow to an average size of ≧75 mm^3 before treatments were initiated. Animals of each tumor type, with the properly sized tumors, were divided into treatment groups, including one set of animals treated weekly with vehicle (phosphate buffered saline, PBS). The vehicle and the test agents were all administered by intraperitoneal injection. Each animal was weighed twice a week during treatment. The tumors were measured twice weekly using calipers. Tumor volume (mm^3) was determined by using the formula for an ellipsoid sphere:
[formula] The efficacy of wild type human RNase 1 is shown relative to cisplatin. The RNase 1 was administered at 75 mg per kg of body weight of the animal once a week (75 mg/kg 1×wk), while the cisplatin was used at 6 mg/kg once a week. The value of n represents the number of animals in the specific treatment arm of the experiment.
(§2) The percent tumor growth inhibition (% TGI) is calculated by: […]
The xenograft model of this example was set up with the human non-small cell lung cancer cell line (A549) as in the previous examples. The efficacy of wild type human RNase 1 is shown relative to tarceva. The RNase 1 was administered at 75 mg per kg of body weight of the animal (75 mg/kg 1×wk) or 150 mg/kg 1×wk. Tarceva was given orally with doses of 50 mg/kg twice a week. The value of n represents the number of animals in the specific treatment arm of the experiment.

In assay [2] the test system is non-small cell lung cancer. The experiment in a line: Xenograft models of non-small cell lung cancer (RNase 1 variants). The class given is in vivo, mice. As to conditions: for (Final − start)/Control: relative to vehicle; for Starting volume: tumor volume at start; for tumor growth inhibition (in words): xenograft model of non-small cell lung cancer. On the procedure:
as §1, with “sphere: […]” for “sphere:”
as §2

Assay [3] relates to human pancreatic cancer cell line (B×PC-3). The assay is described as follows: In vivo inhibition of tumor growth, BxPC-3 xenograft. Also noted: species or system human tumor cells in nude mice. As to conditions: Example 5, Table 9, RNase 1 15 mg/kg qd×5, gemcite 60 mg/kg twice a week. On the procedure:
as §1, with “sphere: […]” for “sphere:”
as §2
The xenograft model of this example was set up as in the previous example except that a human pancreatic cancer cell line (B×PC-3) was used. The efficacy of wild type human RNase 1 is shown relative to gemcite. The RNase 1 was administered at 15 mg per kg of body weight of the animal five times per week (15 mg/kg qd×5), while the gemcite was used at 60 mg/kg twice a week. The value of n represents the number of animals in the specific treatment arm of the experiment.
The xenograft model of this example was set up as in the previous example except that a human pancreatic cancer cell line (B×PC-3) was used. The efficacy of wild type human RNase 1 is shown. The RNase 1 was administered at three different doses: (1) 30 mg per kg of body weight of the animal once per week (30 mg/kg 1×wk), (2) 75 mg/kg 1×wk, or (3) 150 mg/kg 1×wk. The value of n represents the number of animals in the specific treatment arm of the experiment.

The test system of assay [4] is human breast cancer cell line (MDA-MB-231). The assay is described as follows: In vivo inhibition of tumor growth, MDA-MB-231 xenograft. Also noted: species or system human tumor cells in nude mice. As to conditions: Example 10, Table 14, female mice, RNase 1 75 mg/kg 1×wk, doxorubicin 3 mg/kg once per week. On the procedure:
as §1, with “sphere: […]” for “sphere:”
as §2
The xenograft model of this example was set up as in the previous example except that a human breast cancer cell line (MDA-MB-231) and female mice were used. The efficacy of wild type human RNase 1 is shown relative to doxorubicin. The RNase 1 was administered at 75 mg per kg of body weight of the animal once per week (75 mg/kg 1×wk), while the doxorubicin was given at 3 mg/kg once per week. The value of n represents the number of animals in the specific treatment arm of the experiment.

[5] abbreviates: Example 3, Table 7, i.p., RNase 1 75 mg/kg 1×wk, cisplatin 6 mg/kg once a week.
[6] abbreviates: Example 6, Table 10, orally 50 mg/kg twice a week.

Positions count from the first letter of the chain named. Names may count otherwise.

Regarding `N.N.[Cl][Pt][Cl]` [cisplatin, Cisplatin, reference compound], in assay [1] (setting [5]), the “% TGI” value was 81%, the “(Final − start)” value came out at 58 mm^3, the “(Final − start)/Control” value was determined as 0.19 and the Final volume stood at 130 mm^3. Moreover, the Starting volume in assay [1] (setting [5]) turned out to be 72 mm^3. In assay [2] (Table 2, FIG. 1), the “% TGI” value is on record as 68%, the “(Final − start)” value came to 290 mm^3, the Final volume was determined as 369 mm^3 and the “(Final − start)/Control” value is 0.32. Moreover, the Starting volume in assay [2] (Table 2, FIG. 1) amounted to 79 mm^3.
For `Nc1ccn([C@@H]2O[C@H](CO)[C@@H](O)C2(F)F)c(=O)n1` [Gemcite, reference compound], in assay [3], the “% TGI” value is listed as 60%, the “(Final − start)” value came out at 427 mm^3, the “(Final − start)/Control” value was determined as 0.40 and the Final volume was 505 mm^3. In addition, the Starting volume in assay [3] (at start) worked out at 78 mm^3.
On to `COc1cccc2c1C(=O)c1c(O)c3c(c(O)c1C2=O)C[C@@](O)(C(=O)CO)C[C@@H]3O[C@H]1C[C@H](N)[C@H](O)[C@H](C)O1` [doxorubicin, reference compound], for which, in assay [4], the “% TGI” value was 84%, the “(Final − start)” value turned out to be 22 mm^3, the “(Final − start)/Control” value was 0.16 and the Final volume is 86 mm^3. The molecule also came in with a Starting volume in assay [4] (at start) of 64 mm^3.
Take `C#Cc1cccc(Nc2ncnc3cc(OCCOC)c(OCCOC)cc23)c1` [Tarceva, N-(3-ethynylphenyl)-6,7-bis(2-methoxyethoxy)quinazolin-4-amine, reference compound]: in assay [1] (setting [6]), the “% TGI” value is recorded as 77%, the “(Final − start)” value is reported as 181 mm^3, the “(Final − start)/Control” value is 0.23 and the Final volume was 265 mm^3. The Starting volume in assay [1] (setting [6]) worked out at 84 mm^3.

B1: G38R/R39D/L86E/N88R/G89D/R91D RNase 1: variant of human RNase 1 with substitutions G38R, R39D, L86E, N88R, G89D, R91D (protein)
chain: KESRAKKFQRQHMDSDSSPSSSSTYCNQMMRRRNMTQRDCKPVNTFVHEPLVDVQNVCFQEKVTCKNGQGNCYKSNSSMHITDCRETRDSDYPNCAYRTSPKERHIIVACEGSPYVPVHFDASVEDST
In the case of B1, in assay [2] (Table 2, FIG. 1), the “% TGI” value is on record as 28%, the “(Final − start)” value stood at 647 mm^3, the Final volume came out at 723 mm^3 and the “(Final − start)/Control” value is on record as 0.72. In assay [2] (Table 2, FIG. 1), the Starting volume was determined as 76 mm^3. In assay [2], the “tumor growth inhibition (in words)” value is listed as “displayed tumor growth inhibition”.

B2: R4C/K7A/G38R/R39D/L86E/N88R/G89D/R91D/V118C RNase 1: variant of human RNase 1 with substitutions R4C, K7A, G38R, R39D, L86E, N88R, G89D, R91D, V118C (protein)
chain: B1 chain with R4C, K7A, V118C
On to B2, for which, in assay [2] (Table 4, FIG. 3), the “% TGI” value turned out to be 36%, the “(Final − start)” value was 478 mm^3, the Final volume turned out to be 552 mm^3 and the “(Final − start)/Control” value was found to be 0.36. Besides, the Starting volume in assay [2] (Table 4, FIG. 3) is 74 mm^3. Further, the “tumor growth inhibition (in words)” value in assay [2] was “demonstrated measurable tumor growth inhibition”.

B3: R4C/G38R/R39D/L86E/N88R/G89D/R91D/V118C RNase 1: variant of human RNase 1 with substitutions R4C, G38R, R39D, L86E, N88R, G89D, R91D, V118C (protein)
chain: B1 chain with R4C, V118C
B3: in assay [2] (Table 3, FIG. 2), the “% TGI” value was 48%, the “(Final − start)” value turned out to be 1022 mm^3, the Final volume is 1130 mm^3 and the “(Final − start)/Control” value worked out at 0.52. In addition, the Starting volume in assay [2] (Table 3, FIG. 2) was 108 mm^3. In addition, the “tumor growth inhibition (in words)” value in assay [2] was “impacted tumor growth”.

B4: L86E/N88R/G89D/R91D RNase 1: variant of human RNase 1 with substitutions L86E, N88R, G89D, R91D (protein)
chain: B1 chain with R38G, D39R
Take B4: in assay [2] (Table 2, FIG. 1), the “% TGI” value came to 40%, the “(Final − start)” value is given as 540 mm^3, the Final volume came to 624 mm^3 and the “(Final − start)/Control” value worked out at 0.60. The molecule further returned a Starting volume in assay [2] (Table 2, FIG. 1) of 84 mm^3. For the same molecule, the “tumor growth inhibition (in words)” value in assay [2] is “displayed tumor growth inhibition”.
